We go through one compound from ChEMBL document CHEMBL5723587, “Data for DCP probe BI-113823” (2024).

Activity calls are given as the source filed them. No cut-off for these calls is given here.

For one data set, the species on record is Rattus norvegicus. Briefly: Activity against CA+/DHPSI/RA in the Eurofins SafetyScreen44 (BI) by Radioactive Assay. The note with it: Compound concentration 10.0 uM.
Data set [1] deals with T1, B1 bradykinin receptor (Homo sapiens, UniProt P46663).
T1 sequence (P46663 whole entry): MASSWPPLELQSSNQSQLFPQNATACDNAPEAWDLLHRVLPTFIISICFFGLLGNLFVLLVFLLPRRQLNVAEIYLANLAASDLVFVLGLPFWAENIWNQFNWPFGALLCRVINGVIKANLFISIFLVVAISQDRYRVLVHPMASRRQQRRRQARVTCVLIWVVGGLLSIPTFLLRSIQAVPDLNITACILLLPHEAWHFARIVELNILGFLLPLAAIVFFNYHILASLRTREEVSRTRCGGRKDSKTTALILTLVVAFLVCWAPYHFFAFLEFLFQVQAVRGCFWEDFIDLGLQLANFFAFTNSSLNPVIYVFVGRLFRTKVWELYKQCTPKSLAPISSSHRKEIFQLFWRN
Briefly: Radioligand binding assay (displacement of kallidin, hBDKRB1 ) at 10 µM ( Non-specific binding is estimated in the presence of 10 µM Des-Arg9- (Leu8)-Bradykinin. Membranes are filtered and washed, the filters are then counted to determine [3H]Kallidin[des-Arg10, Leu9] specifically bound.). Set-up: compound concentration 10 uM.

In data set [2] the target is B1 bradykinin receptor (Rattus norvegicus, UniProt P97583). Briefly: Radioligand binding assay (displacement of kallidin, rat BDKRB1 ) at 10 µM ( Non-specific binding is estimated in the presence of 10 µM Des-Arg9- (Leu8)-Bradykinin. Membranes are filtered and washed, the filters are then counted to determine [3H]Kallidin[des-Arg10, Leu9] specifically bound.). Set-up: compound concentration 10 uM.
Chain of B1 bradykinin receptor (Rattus norvegicus, UniProt P97583) (P97583 whole entry): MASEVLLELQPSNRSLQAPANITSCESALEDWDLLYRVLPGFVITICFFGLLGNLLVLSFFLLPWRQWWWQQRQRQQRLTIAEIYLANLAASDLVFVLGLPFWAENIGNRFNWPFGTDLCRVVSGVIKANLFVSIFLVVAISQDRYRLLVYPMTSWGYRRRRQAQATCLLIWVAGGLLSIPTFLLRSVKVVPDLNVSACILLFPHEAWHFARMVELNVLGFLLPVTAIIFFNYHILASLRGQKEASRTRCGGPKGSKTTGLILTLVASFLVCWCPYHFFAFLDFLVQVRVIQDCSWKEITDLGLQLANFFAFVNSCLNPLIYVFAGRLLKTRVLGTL

The target in data set [3] is Alpha-1A adrenergic receptor (Rattus norvegicus) (UniProt P43140). Briefly: Activity against ALPHA1A/R in the Eurofins SafetyScreen44 (BI) by Others. The conditions noted are these: Compound concentration 10.0 uM.
Chain of Alpha-1A adrenergic receptor (Rattus norvegicus) (P43140 whole entry, looked up): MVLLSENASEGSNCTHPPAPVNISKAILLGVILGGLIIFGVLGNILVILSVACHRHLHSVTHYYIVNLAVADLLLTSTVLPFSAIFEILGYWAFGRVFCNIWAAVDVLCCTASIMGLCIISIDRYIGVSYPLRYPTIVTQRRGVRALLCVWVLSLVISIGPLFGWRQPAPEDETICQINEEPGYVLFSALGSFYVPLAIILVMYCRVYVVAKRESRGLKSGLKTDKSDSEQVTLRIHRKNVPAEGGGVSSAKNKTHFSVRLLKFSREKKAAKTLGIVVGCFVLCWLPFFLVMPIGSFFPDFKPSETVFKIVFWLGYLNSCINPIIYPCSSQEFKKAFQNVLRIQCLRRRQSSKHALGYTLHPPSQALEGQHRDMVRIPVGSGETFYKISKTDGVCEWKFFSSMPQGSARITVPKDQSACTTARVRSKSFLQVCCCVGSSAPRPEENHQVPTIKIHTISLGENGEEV
The target in data set [4] is Thyroid hormone receptor alpha (Rattus norvegicus) (UniProt P63059). The experiment in a line: Activity against THYROID HORM in the Eurofins SafetyScreen44 (BI) by Radioactive Assay. The conditions noted are these: Homo sapiens; Compound concentration 10.0 uM.
Chain of Thyroid hormone receptor alpha (Rattus norvegicus) (P63059 whole entry): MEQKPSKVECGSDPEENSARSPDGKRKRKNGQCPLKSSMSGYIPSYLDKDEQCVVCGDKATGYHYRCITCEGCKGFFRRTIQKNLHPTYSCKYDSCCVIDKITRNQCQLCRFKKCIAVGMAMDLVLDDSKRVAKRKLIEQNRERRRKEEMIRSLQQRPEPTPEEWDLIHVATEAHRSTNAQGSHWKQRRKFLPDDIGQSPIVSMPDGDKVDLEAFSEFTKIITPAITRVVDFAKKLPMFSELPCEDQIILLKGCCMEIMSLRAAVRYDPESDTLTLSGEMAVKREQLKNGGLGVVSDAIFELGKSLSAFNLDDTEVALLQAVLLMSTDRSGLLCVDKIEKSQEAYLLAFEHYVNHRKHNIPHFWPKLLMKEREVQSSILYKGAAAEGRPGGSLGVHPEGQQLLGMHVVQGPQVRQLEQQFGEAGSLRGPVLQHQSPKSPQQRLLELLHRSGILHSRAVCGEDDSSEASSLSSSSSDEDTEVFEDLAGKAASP
Data set [5] concerns the target L-type calcium channel, Cav1.2 alpha-1C (CA+/DILSI/RA) (Rattus norvegicus, UniProt P22002). Briefly: Activity against CA+/DILSI/RA in the Eurofins SafetyScreen44 (BI) by Radioactive Assay. The note with it: compound concentration 10 uM, read-out: % Ctrl.
The target in data set [6] is 5-hydroxytryptamine receptor 3A (Homo sapiens) (UniProt P46098). The experiment in a line: Activity against 5HT3/HU in the Eurofins SafetyScreen44 (BI) by Others. The note with it: Compound concentration 10.0 uM.
Chain of 5-hydroxytryptamine receptor 3A (Homo sapiens) (P46098 whole entry): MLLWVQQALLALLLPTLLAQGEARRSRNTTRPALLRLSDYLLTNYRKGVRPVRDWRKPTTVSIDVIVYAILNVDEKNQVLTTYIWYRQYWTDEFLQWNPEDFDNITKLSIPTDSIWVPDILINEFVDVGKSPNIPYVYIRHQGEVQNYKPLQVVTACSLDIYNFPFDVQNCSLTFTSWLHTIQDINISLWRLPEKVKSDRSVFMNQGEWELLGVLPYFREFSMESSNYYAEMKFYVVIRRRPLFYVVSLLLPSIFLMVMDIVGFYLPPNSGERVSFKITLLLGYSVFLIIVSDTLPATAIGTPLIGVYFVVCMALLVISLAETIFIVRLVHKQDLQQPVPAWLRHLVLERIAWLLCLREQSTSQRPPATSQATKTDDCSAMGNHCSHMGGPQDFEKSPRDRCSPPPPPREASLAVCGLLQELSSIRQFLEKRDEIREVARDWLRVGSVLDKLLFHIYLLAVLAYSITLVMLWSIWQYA
Data set [7] concerns the target Histamine H3 receptor (Homo sapiens) (UniProt Q9Y5N1). Briefly: Activity against H3/H in the Eurofins SafetyScreen44 (BI) by Radioactive Assay. The note with it: Compound concentration 10.0 uM.

Chain of Histamine H3 receptor (Homo sapiens) (Q9Y5N1 whole entry): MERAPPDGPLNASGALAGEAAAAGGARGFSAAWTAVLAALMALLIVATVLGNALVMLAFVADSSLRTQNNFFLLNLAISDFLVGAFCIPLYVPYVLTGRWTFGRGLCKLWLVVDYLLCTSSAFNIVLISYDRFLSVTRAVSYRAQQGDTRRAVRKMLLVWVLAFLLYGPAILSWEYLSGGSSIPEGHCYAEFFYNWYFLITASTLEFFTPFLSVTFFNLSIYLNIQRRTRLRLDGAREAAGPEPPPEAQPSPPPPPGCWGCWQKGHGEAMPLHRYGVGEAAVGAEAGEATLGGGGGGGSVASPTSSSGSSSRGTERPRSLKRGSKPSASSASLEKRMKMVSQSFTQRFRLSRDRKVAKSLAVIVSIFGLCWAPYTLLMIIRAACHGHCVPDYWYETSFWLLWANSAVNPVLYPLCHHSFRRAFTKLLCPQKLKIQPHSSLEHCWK
Chain of L-type calcium channel, Cav1.2 alpha-1C (CA+/DILSI/RA) (P22002 whole entry): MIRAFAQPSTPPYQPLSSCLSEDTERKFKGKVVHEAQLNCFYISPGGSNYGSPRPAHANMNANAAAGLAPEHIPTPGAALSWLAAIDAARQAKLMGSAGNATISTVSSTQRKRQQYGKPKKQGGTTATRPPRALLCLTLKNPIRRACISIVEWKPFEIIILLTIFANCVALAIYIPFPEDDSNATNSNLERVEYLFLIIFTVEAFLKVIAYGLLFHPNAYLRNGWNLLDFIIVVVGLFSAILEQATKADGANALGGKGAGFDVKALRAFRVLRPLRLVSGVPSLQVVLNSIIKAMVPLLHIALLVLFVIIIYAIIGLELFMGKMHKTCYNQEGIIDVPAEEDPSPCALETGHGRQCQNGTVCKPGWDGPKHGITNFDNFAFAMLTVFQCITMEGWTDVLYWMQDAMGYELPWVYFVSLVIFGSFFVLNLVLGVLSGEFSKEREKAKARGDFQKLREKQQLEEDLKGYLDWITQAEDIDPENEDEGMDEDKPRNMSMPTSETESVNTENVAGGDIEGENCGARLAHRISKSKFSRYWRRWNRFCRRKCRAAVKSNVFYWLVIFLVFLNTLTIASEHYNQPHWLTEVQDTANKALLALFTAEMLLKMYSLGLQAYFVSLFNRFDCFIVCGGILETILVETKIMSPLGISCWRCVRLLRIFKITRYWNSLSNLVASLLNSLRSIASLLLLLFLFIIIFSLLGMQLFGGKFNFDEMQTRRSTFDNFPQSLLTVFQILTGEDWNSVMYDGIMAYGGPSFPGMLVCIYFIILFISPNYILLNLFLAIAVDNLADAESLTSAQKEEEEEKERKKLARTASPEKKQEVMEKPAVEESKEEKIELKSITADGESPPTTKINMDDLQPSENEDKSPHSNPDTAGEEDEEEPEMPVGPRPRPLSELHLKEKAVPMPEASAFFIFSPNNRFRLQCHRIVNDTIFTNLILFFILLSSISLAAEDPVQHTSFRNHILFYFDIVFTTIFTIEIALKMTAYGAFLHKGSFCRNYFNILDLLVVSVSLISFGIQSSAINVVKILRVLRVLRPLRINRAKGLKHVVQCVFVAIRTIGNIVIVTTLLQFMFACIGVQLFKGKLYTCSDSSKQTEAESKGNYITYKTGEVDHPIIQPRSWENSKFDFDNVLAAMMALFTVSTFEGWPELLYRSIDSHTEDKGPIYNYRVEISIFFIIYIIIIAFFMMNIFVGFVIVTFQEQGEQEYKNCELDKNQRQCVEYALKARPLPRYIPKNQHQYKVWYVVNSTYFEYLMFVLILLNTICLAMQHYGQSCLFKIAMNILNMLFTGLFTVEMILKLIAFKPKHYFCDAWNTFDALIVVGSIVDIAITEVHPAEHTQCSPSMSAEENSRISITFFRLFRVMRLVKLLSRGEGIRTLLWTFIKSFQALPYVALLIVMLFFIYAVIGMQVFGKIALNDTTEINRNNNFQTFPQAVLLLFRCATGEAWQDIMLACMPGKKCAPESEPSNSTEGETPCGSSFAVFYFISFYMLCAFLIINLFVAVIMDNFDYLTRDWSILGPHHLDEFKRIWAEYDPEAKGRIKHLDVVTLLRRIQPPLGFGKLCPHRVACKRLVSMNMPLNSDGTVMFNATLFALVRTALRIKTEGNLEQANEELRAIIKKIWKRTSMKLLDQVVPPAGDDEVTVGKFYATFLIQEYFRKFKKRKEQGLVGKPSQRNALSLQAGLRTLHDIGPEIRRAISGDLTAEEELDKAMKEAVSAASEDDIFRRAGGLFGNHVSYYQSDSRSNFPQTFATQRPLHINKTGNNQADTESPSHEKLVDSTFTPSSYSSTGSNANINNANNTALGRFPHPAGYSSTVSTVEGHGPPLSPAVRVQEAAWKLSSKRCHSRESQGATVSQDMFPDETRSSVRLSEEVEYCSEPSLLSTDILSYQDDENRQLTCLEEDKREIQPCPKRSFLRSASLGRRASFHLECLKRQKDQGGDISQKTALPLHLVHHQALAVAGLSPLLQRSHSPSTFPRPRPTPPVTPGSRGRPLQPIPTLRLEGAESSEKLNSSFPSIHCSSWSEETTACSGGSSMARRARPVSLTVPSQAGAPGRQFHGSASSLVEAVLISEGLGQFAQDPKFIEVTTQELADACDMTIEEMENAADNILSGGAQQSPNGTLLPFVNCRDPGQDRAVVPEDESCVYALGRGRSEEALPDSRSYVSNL

Take `COc1cc(C)c(S(=O)(=O)N(C)CCOCC(=O)N(C)[C@H]2CCC[C@@H](N3CCN(C)CC3)C2)c(C)c1`: the residual activity (in general, the signal under treatment as a percentage of the control signal) in the data set listed under Rattus norvegicus is 94%; in data set [3], 118%; in data set [4], 84%; in data set [6] it was 91%; in data set [7] it was 77%. The Ki – broadly, a dissociation constant, usually derived from enzyme kinetics or from competition with a known ligand – at B1 bradykinin receptor [1] is 5.3 nM (active); at B1 bradykinin receptor [2] it was 13.3 nM (active). The activity at 10 µM in data set [5] is on record as 86% (not active).
